Reference: patent EP0065874A1, “2-Aminophenol derivatives, methods for their preparation and composition containing the same” (ONO PHARMACEUTICAL CO., LTD., priority 1981, dated 1982)
Where a name gives a salt, the structure may show the parent alone.

Test system: mice
Test: Acute toxicity by intravenous injection
Type: in vivo
Conditions: intravenous injection to tail vein, doses of 10 mg/Kg and 30 mg/Kg
Experimental: On the other hand, all extent of the compounds of the present invention were confirmed that their acute toxicities were more than 30 mg/Kg by intravenous injection. Therefore, the compounds of the present invention may be considered to be sufficiently safe and suitable for medical use.

Compound | dead case in 30 cases
COc1ccc(C(=O)c2cc(Cl)cc(N)c2O)cc1.Cl [3-Amino-5-chloro-2-hydroxy-4'-methoxybenzophenone hydrochloride] | no dead case
CCCCCCC(O)c1cc(C(C)(C)C)cc(N)c1O (stereo not drawn) [2-Amino-4-t-butyl-6-(1-hydroxyheptyl)phenol] | no dead case

Test system: cyclooxygenase
Test: Standard assay system using polymorphonuclear leukocytes: inhibition of HHT or TXB2 production from [1-14C] arachidonic acid
Type: cell-based
Conditions: polymorphonuclear leukocytes from guinea pig (4 x 10^7 cells), 5 minutes at 30°C, read-out: concentrations for 50% inhibitions on cyclooxygenase
Experimental: The experiments for screening using polymorphonuclear leukocytes was carried out as follows: The reaction mixture (0.1 ml) containing 5 umole of potassium phosphate at pH 7.4, 0.1 µmole of calsium chloride, polymorphonuclear leukocytes prepared from guinea pigs (4 x 10^7 cells) and test compound was preincubated for 5 minutes at 30°C. The reaction was started by the addition of [^1-14C] arachidonic acid ([…] dpm, 1.8 nmole), followed by the incubation at 30°C for 5 minutes. The reaction was terminated by the addition of 0.3 ml of mixture of ether/ methanol/lM citric acid (30/4/1). The organic phase (20 µl) was applied to silica gel plate. Thin layer chromatography was performed to separate each product with solvent system of ether/petroleum ether/acetic acid (85/15/0.1).
Activity of 5-lipoxygenase and cyclooxygenase were calculated from the measurement of the radioactivity corresponding to 5-HETE and 12L-hydroxy-5,8,10-heptareienoic acid (i.e. HHT) or thromboxane B2 (i.e. TXB2). [it have been known that HHT and TXB2 were the last products of the system concerning cyclooxygenase in the arachidonate cascade] Further, it was determined that the concentrations of 50% inhibitions to produce 5-HETE and HHT or TXB2 for the 50% inhibiting concentrations of 5-lipoxygenase and cyclooxygenase, respectively.

IC50 | Compound
7.2 µM | Nc1cc(F)cc(C(O)c2ccc(Cl)cc2)c1O (stereo not drawn) [3-Amino-4'-chloro-5-fluoro-2-hydroxybenzhydrol hydrochloride]
100 µM | CC(C)(C)c1cc(N)c(O)c(C(O)c2ccc(Cl)cc2)c1 (stereo not drawn) [3-Amino-5-t-butyl-4'-chloro-2-hydroxybenzhydrol hydrochloride]
3 µM | Nc1cc(Cl)cc(C(=O)c2ccc(Cl)cc2)c1O [3-Amino-5,4'-dichloro-2-hydroxybenzophenone]
2 µM | Nc1cc(F)cc(C(=O)c2ccc(Cl)cc2)c1O [3-Amino-4'-chloro-5-fluoro-2-hydroxybenzophenona]
